Results reported in ChEMBL document CHEMBL1201862, “PubChem BioAssay data set” (2004).
Active and inactive are the calls of the source.

Assays:
[1] = target: Ubiquitin carboxyl-terminal hydrolase BAP1 (Homo sapiens, UniProt Q92560); assay: inhibition of BAP1 ubiquitin hydrolase activity – biochemical, dose response (AID 714); format: functional
[2] = target: T1, Voltage-gated N-type calcium channel alpha-1B subunit/Amyloid beta A4 precursor protein-binding family A member 1 (Homo sapiens, UniProt Q00975+Q02410); format: protein assay
T1 sequence (Q00975 whole entry): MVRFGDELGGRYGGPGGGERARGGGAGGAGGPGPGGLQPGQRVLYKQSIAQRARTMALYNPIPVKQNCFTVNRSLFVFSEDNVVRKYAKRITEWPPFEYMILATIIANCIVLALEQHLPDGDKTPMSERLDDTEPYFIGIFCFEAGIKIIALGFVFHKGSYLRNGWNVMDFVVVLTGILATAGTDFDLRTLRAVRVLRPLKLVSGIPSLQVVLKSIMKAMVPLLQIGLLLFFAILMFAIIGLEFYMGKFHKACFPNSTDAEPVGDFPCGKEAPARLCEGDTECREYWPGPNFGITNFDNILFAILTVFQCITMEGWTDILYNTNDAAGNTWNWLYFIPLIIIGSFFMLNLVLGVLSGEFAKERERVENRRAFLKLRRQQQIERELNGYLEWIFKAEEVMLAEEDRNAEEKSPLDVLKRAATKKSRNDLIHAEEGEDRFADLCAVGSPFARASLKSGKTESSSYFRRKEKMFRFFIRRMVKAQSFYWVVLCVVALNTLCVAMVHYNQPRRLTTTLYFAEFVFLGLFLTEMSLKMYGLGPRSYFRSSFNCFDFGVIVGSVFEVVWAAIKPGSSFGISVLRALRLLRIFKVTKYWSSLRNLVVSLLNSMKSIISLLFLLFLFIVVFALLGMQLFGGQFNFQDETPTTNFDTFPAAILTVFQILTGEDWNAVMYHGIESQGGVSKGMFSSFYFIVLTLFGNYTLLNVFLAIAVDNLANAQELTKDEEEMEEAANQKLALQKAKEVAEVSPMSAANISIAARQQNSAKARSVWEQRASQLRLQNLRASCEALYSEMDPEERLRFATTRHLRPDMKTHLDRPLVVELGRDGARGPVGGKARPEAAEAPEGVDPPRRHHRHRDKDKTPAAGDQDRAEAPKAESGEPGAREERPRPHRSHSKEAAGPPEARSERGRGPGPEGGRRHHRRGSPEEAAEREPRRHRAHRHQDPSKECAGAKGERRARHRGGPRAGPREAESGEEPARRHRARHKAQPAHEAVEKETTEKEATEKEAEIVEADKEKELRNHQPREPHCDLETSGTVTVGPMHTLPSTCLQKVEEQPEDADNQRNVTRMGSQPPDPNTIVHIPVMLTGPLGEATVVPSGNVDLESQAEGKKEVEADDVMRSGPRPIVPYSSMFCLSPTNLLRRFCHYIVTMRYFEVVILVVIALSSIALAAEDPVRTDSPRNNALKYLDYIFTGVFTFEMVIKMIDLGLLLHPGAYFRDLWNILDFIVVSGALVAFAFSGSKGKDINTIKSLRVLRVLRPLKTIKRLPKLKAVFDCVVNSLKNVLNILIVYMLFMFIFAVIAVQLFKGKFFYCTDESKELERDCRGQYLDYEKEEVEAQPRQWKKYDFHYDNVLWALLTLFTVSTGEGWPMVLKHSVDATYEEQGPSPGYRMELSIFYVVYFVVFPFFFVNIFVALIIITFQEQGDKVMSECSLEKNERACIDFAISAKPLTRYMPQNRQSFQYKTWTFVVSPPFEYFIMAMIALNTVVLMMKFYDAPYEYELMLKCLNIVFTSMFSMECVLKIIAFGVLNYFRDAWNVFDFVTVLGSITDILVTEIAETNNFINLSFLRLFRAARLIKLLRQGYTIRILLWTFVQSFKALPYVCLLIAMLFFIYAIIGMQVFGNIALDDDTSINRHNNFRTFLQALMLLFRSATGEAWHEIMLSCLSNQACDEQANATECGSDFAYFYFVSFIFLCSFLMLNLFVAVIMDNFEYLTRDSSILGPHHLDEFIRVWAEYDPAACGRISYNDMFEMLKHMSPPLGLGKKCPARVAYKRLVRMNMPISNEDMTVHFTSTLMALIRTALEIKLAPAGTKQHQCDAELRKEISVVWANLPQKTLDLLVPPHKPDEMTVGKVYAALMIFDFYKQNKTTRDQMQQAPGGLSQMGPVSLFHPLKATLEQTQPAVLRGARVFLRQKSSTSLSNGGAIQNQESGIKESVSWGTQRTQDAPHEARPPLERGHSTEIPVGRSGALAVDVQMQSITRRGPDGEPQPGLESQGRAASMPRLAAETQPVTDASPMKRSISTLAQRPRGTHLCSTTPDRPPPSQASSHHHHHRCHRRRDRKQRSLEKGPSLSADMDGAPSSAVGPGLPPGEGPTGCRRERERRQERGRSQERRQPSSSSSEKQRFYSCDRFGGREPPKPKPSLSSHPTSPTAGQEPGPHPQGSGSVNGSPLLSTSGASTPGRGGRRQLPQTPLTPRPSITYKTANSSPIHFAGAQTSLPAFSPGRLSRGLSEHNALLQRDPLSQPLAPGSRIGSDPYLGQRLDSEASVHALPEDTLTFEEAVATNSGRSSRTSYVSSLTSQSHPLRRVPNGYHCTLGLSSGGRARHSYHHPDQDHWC
T1 sequence (Q02410 whole entry): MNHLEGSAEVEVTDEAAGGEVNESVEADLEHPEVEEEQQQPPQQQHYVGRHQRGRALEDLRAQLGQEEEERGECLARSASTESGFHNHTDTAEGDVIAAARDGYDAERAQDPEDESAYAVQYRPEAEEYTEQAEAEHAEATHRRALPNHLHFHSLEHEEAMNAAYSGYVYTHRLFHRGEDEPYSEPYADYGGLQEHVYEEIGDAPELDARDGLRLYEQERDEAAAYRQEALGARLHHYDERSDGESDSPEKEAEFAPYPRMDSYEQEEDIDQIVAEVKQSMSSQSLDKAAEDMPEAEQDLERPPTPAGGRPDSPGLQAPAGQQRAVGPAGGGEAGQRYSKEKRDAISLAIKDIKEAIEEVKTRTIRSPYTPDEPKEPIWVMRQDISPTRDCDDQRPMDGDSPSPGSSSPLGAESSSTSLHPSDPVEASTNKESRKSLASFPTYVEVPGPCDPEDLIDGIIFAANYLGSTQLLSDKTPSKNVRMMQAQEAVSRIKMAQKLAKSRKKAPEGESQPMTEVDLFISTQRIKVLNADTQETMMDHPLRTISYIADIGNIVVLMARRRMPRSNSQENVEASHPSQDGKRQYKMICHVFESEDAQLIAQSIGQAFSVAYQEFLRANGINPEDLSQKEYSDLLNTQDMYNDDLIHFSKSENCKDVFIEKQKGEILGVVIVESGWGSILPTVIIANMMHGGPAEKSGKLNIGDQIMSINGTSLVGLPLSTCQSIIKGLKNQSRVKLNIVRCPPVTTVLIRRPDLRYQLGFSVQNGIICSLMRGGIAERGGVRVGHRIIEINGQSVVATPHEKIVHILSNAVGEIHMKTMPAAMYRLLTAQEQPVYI

[3] = M. tuberculosis H37Rv growth inhibitors, H37Rv strain (AID 1626); format: functional
[4] = target: Luciferin 4-monooxygenase (Photinus pyralis, UniProt P08659); assay: inhibition of purified Photinus pyralis luciferase – biochemical, luminescence, dose response (AID 1891)
Sequence of Luciferin 4-monooxygenase (P08659 whole entry): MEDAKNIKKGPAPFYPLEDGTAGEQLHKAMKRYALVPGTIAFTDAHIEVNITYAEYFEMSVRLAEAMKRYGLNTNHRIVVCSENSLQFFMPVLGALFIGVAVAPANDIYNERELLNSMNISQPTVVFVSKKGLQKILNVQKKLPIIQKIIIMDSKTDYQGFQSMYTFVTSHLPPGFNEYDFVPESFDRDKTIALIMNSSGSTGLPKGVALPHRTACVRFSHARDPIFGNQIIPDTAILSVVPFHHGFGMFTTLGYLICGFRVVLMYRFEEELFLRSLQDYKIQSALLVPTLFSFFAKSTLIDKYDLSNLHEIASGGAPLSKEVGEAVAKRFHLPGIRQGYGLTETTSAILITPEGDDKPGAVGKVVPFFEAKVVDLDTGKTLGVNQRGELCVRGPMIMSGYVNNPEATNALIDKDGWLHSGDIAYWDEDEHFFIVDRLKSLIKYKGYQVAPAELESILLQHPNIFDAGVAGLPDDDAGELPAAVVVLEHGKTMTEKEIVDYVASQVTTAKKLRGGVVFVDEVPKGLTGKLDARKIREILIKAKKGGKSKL

[5] = Luminescence Cell-Based Dose Confirmation HTS to Identify Inhibitors of Platelet Dense Granule Release. [Related pubchem assays: 1663 (Primary HTS), 1678 (Summary of Project)]; format: functional
[6] = target: T1, Voltage-gated N-type calcium channel alpha-1B subunit/Amyloid beta A4 precursor protein-binding family A member 1; format: protein assay; remark: listed apart in the source
Cytochrome P450 2C19 = Cytochrome P450 2C19 (Homo sapiens, UniProt P33261); assay: qHTS Assay for Inhibitors and Substrates of Cytochrome P450 2C19. [Related pubchem assays: 410 ]; format: ADME; settings: read-out: Potency
Sequence of Cytochrome P450 2C19 (P33261 whole entry): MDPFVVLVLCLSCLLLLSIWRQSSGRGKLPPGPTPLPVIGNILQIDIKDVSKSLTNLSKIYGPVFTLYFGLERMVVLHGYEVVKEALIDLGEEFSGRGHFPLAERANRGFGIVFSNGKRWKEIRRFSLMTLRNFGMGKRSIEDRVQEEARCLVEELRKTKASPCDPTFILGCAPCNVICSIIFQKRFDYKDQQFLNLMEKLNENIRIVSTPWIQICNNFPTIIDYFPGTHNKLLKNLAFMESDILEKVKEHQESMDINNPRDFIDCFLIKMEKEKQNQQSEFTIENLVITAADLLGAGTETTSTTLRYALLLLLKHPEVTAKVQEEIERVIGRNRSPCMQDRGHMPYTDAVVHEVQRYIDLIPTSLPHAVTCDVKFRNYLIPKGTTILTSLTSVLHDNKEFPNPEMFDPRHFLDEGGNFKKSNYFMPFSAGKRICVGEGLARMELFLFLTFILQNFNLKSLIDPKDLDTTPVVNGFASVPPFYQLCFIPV

[7] = system: Streptococcus sp. 'group A'; assay: Streptococcus pyogenes SK(-)GAS viability under kanamycin – luminescence, BacTiterGlo, confirmation, counter-screen for streptokinase expression inhibitor project, dose response (AID 1900); format: functional, organism-based
cells [8] = format: functional, cell-based
Streptokinase A = target: T2, Streptokinase A (Streptococcus pyogenes serotype M1, UniProt P10520); assay: viability-normalized secreted streptokinase activity reduction – plasminogen activation absorbance, OD405, dose response (AID 1914); format: functional, Streptococcus pyogenes M1 GAS;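 also: secreted streptokinase activity via plasminogen activation per viability signal from cell pellet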
T2 sequence (P10520 whole entry): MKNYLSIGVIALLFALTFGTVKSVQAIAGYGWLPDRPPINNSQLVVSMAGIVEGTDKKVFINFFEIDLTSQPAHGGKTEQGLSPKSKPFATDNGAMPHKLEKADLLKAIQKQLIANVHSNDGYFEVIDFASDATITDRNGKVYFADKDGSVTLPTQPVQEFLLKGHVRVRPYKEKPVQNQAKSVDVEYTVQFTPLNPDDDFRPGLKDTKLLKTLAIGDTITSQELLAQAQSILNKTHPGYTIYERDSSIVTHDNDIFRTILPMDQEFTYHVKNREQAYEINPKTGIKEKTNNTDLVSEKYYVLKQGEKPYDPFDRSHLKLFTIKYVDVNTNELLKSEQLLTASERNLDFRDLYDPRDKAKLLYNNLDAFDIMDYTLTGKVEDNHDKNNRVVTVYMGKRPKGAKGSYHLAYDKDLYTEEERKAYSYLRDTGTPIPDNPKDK

[9] = Trypanosoma cruzi growth suppression in host cells – NIH3T3 host cells, beta-gal luminescence, confirmation (AID 2044); format: functional, cell-based;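 also: intracellular parasites grown in NIH/3T3 mouse fibroblasts as host cells; luminescent beta-galactosidase reporter signal from transgenic T. cruzi replicating inside host cells; inhibitors lower the luminescence signal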
cells [10] = format: functional, cell-based; remark: listed apart in the source
Galanin receptor type 2 = Galanin receptor type 2 (Homo sapiens, UniProt O43603); assay: Dose Response cell-based high-throughput screening assay to identify agonists of galanin receptor 2 (GALR2). [Related pubchem assays: 864 ]; format: functional
[11] = NIH3T3 cell viability loss – ATP luminescence, mouse fibroblasts, counter-screen, dose response (AID 2010); format: functional, cell-based;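 also: cells exposed to compound for about 90 hours before reading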
Streptococcus = assay: GAS UMAA2166 growth inhibition – luminescence, BacTiterGlo, counter-screen for streptokinase expression inhibitor project, dose response (AID 1915); format: functional, organism-based;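 also: potency for reduction of bacterial viability or growth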
INS1 = assay: INS-1E survival protection against cytokine death – cell-based, luminescence, retest, dose response (AID 449756); format: functional; settings: Rattus norvegicus;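 also: cell death triggered by IL-1 beta plus TNF-alpha plus IFN-gamma mixture; protective hits raise ATP signal compared with cytokine alone wells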
[12] = target: Sphingosine 1-phosphate receptor 2 (Homo sapiens, UniProt O95136); assay: Dose Response Cell Based Assay for Agonists of the S1P2 Receptor. [Related pubchem assays: 729, 736, 843 ]; format: functional
[13] = target: T3, Rac GTPase-activating protein 1 (Homo sapiens, UniProt Q9H0H5); assay: blockers of MgcRacGAP-driven Rac1 GTP hydrolysis – biochemical, ADP Hunter fluorescence, primary and confirmatory, confirmation (AID 624330); format: functional
T3 sequence (Q9H0H5 whole entry): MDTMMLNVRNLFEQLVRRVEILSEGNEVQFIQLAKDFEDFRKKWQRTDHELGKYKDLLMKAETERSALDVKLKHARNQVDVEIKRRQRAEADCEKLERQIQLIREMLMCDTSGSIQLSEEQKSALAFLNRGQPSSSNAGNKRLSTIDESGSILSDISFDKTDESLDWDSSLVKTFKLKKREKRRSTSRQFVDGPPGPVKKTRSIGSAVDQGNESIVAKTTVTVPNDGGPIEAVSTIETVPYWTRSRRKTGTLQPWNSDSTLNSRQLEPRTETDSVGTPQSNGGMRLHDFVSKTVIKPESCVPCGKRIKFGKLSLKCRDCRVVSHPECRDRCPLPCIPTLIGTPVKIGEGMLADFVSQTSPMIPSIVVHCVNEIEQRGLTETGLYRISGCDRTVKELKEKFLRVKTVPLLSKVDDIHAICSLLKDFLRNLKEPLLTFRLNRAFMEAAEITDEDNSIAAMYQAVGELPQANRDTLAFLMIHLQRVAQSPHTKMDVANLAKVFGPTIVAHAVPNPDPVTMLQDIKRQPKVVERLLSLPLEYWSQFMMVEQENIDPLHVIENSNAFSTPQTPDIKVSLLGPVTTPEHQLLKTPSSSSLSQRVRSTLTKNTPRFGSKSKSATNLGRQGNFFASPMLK

[14] = Luminescent dose response cell-based high throughput screening assay for inhibitors of the Janus kinase 2 mutant JAK2V617F. [Related pubchem assays: 1446 (Primary screen.), 1521 (Confirmation assay.), 1486 (Counter screen.)]; format: functional
[15] = target: T4, Replicative DNA helicase DnaB (Mycobacterium tuberculosis, UniProt P9WMR3); assay: DnaB intein splicing inhibitors, dose response, biochemical, cell-free fluorescence (AID 449749); format: functional
T4 sequence (P9WMR3 whole entry): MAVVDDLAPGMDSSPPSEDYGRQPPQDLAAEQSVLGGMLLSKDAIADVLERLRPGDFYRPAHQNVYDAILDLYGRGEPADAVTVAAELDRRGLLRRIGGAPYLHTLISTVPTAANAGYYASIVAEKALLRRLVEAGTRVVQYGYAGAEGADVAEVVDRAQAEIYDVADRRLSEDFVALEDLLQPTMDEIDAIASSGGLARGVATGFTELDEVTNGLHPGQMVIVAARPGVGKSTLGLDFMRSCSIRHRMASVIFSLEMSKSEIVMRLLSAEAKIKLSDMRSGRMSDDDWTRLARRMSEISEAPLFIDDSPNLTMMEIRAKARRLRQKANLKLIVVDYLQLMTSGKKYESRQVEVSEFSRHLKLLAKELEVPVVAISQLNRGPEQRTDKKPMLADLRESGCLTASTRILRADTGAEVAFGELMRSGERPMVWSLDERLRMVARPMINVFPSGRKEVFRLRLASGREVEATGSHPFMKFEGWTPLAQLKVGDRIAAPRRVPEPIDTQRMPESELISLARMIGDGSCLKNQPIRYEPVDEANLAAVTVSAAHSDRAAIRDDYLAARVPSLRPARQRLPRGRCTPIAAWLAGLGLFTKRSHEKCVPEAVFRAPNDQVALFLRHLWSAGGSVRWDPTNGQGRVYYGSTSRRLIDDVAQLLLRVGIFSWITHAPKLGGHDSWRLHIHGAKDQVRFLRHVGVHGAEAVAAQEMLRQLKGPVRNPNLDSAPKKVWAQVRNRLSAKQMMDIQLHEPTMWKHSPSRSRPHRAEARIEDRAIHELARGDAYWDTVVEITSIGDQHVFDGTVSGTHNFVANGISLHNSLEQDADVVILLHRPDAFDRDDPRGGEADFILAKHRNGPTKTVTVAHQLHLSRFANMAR

Protein RecA = target: T5, Protein RecA (Mycobacterium tuberculosis, UniProt P9WHJ3); assay: Fluorescence Cell-Free Homogeneous Dose Retest to Identify Inhibitors of RecA-Intein Splicing Activity. [Related pubchem assays (depositor defined):AID2097, AID2223, AID489010, AID492950]; format: functional
T5 sequence (P9WHJ3 whole entry): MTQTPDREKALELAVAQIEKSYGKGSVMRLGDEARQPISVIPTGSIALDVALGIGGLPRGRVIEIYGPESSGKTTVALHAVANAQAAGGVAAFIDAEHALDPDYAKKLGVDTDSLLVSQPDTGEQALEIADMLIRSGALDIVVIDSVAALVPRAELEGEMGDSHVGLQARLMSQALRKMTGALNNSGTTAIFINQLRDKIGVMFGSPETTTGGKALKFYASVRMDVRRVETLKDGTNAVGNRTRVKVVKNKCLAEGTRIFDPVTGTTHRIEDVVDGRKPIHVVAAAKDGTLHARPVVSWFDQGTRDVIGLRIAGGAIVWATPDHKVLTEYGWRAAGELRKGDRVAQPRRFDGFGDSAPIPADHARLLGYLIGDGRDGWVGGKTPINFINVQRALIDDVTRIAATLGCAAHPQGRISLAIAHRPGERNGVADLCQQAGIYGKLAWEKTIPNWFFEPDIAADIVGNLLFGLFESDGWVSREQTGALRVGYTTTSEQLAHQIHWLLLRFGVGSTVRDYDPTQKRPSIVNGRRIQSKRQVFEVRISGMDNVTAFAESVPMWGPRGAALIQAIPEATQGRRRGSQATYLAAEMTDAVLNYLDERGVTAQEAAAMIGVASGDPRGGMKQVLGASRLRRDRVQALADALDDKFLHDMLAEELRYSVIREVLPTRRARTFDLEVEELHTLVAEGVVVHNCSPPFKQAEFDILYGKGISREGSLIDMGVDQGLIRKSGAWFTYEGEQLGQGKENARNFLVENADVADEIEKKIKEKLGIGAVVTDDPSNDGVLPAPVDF

[16] = target: T6, Tyrosine-protein phosphatase non-receptor type 7 (Homo sapiens, UniProt P35236); assay: HePTP tyrosine phosphatase activity blockers – biochemical, absorbance, leukemia target, primary screen (AID 521); format: functional
T6 sequence (P35236 whole entry): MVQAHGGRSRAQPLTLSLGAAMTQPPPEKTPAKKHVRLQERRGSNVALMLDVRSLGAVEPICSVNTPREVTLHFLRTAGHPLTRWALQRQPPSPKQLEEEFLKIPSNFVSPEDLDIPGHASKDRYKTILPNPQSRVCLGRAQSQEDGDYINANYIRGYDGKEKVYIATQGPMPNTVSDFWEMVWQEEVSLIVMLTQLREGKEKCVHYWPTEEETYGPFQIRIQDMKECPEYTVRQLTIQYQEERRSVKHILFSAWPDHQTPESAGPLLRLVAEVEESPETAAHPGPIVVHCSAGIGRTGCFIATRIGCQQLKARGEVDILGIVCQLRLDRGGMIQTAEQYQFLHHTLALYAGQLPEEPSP

Sequence of Ubiquitin carboxyl-terminal hydrolase BAP1 (Q92560 whole entry): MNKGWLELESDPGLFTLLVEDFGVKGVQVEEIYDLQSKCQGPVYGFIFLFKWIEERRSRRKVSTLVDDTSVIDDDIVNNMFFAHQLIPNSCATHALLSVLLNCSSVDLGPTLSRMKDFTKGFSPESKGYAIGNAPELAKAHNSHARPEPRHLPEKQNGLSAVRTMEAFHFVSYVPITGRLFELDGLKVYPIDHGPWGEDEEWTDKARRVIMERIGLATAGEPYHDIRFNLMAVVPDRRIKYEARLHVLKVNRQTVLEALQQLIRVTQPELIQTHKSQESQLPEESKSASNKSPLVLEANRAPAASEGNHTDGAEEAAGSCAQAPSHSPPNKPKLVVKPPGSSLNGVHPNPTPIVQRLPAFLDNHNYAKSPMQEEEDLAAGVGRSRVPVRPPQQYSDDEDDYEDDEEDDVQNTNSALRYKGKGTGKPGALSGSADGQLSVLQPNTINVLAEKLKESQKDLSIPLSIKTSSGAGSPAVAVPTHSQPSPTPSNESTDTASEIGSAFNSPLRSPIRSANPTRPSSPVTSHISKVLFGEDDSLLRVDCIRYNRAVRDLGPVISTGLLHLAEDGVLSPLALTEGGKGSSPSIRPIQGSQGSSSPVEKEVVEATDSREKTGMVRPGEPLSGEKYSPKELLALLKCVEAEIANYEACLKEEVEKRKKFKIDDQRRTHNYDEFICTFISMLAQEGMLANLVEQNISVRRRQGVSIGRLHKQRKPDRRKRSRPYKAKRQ

In the case of `COc1ccc(C2CC(=O)N3CN(c4ccc(C)c(Cl)c4)CSC3=C2C#N)cc1OC` (configuration not stated), the IC50 [1] is reported as > 50 µM (not active), the IC50 [2] is reported as > 56.8 µM (not active) and the IC50 [3] is reported as > 100 µM (active). The EC50 [4] was > 112 µM (not active), the EC50 [5] was > 112 µM (not active) and the IC50 [6] was > 50 µM (inactive).

With `COc1ccc(CNc2ncnc3ccc(-c4ccccc4OC)cc23)c(OC)c1` the AC50 (Cytochrome P450 2C19) was 3.98 µM (inconclusive).

In the case of `Cc1cc(C)c2nc(NNC(=O)c3ccc(S(=O)(=O)N4CCCC(C)C4)cc3)sc2c1` (configuration not stated), the EC50 [7] is reported as 0.55 µM (active), the EC50 (cells [8]) is reported as 8.41 µM (active) and the EC50 (Streptokinase A) is reported as > 150 µM (not active). For the same compound, the EC50 [9] was 1.79 µM (active), the EC50 (cells [10]) was > 350 µM (not active) and the EC50 (Galanin receptor type 2) was > 55.7 µM (not active). The EC50 [11] was 3.22 µM (active), the EC50 (Streptococcus) was 11.5 µM (active) and the AC50 (INS1) was 1.81 µM (active).

In the case of `CCOCCCNc1nc(S)nc2cc(OC)c(OC)cc12`, the EC50 [12] is reported as > 50 µM (not active) and the IC50 [13] is reported as 83 µM (active).

For `CC(C)(C)c1cc(NC(=O)CCl)n(-c2ccccc2)n1`, the IC50 [14] was 1.79 µM (active), the AC50 [15] was 65.1 µM (active) and the EC50 (Protein RecA) was 13.6 µM (active).

With `Nc1nc(Nc2cccc3ccccc23)nc(C2CCCC2=O)n1` (configuration not stated) the IC50 [16] was > 100 µM (not active).
